Assays:
[1] = molecular target: T1, GABA-A receptor; alpha-3/beta-3/gamma-2 (Homo sapiens) (UniProt P18507+P28472+P34903); assay: Effective concentration to modulate GABA-mediated chloride ion flux through GABA-A receptor alpha-3-beta-3-gamma-2 expressed in L(tk-) cells; assay type: functional, cell-based
[2] = molecular target: T1, GABA-A receptor; alpha-3/beta-3/gamma-2 (Homo sapiens); assay: Effective current to modulate GABA-mediated chloride ion flux through GABA-A receptor alpha-3-beta-3-gamma-2 expressed in L(tk-) cells; assay type: functional, cell-based
[3] = molecular target: T2, GABA-A receptor; alpha-1/beta-3/gamma-2 (Homo sapiens) (UniProt P14867+P18507+P28472); assay: Effective current to modulate GABA-mediated chloride ion flux through GABA-A receptor alpha-1-beta-3-gamma-2 expressed in L(tk-) cells; assay type: functional, cell-based
[4] = molecular target: T3, GABA-A receptor; alpha-1/beta-3/gamma-2 (Homo sapiens, UniProt P14867+P18507+P28472); assay: Inhibition of [3H]-Ro- 15-1788 binding to human GABA-A receptor alpha-1-beta-3-gamma-2 expressed in L(tk-) cells; assay type: cell-based
T3 sequence (P14867 whole entry): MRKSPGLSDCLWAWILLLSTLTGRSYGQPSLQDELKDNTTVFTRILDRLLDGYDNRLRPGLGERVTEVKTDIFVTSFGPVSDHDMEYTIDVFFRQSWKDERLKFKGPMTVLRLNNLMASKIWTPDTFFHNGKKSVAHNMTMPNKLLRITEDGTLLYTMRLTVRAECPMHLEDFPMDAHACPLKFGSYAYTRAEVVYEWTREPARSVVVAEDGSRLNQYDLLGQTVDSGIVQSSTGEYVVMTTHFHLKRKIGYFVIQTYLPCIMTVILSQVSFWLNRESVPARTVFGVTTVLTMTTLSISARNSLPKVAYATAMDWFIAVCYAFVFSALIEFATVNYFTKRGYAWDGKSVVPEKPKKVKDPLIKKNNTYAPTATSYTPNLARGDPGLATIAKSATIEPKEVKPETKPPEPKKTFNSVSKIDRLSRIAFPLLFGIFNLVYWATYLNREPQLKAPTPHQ
T3 sequence (P18507 whole entry): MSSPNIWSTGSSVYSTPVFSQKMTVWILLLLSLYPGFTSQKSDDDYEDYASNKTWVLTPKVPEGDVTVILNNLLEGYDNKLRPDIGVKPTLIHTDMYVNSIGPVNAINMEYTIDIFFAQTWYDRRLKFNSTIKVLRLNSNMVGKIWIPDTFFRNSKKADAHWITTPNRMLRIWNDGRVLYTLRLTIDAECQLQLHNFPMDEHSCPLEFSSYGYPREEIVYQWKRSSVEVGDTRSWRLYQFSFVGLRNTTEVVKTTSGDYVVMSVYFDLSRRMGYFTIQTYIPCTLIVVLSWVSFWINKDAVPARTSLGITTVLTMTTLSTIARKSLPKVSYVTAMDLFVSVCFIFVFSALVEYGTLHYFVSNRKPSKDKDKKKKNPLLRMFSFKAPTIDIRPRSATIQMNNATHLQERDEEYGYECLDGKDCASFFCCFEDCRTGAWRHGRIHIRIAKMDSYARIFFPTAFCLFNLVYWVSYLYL
T3 sequence (P28472 whole entry): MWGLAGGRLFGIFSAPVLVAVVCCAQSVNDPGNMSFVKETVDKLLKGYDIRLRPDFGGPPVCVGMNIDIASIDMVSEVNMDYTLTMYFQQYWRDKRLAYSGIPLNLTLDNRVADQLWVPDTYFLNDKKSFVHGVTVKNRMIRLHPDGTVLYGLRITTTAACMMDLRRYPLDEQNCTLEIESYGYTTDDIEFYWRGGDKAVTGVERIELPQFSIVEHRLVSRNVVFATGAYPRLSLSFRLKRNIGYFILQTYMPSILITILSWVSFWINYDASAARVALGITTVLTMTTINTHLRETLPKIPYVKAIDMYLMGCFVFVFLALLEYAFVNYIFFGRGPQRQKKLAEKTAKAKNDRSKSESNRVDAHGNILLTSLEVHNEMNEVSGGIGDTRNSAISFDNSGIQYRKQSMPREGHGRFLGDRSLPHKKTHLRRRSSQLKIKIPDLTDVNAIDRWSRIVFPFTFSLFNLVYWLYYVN

[5] = molecular target: T2, GABA-A receptor; alpha-1/beta-3/gamma-2 (Homo sapiens); assay: Effective concentration to modulate GABA-mediated chloride ion flux through GABA-A receptor alpha-1-beta-3-gamma-2 expressed in L(tk-) cells; assay type: functional, cell-based
[6] = molecular target: T4, GABA-A receptor; alpha-3/beta-3/gamma-2 (Homo sapiens, UniProt P18507+P28472+P34903); assay: Inhibition of [3H]-Ro- 15-1788 binding to human GABA-A receptor alpha-3-beta-3-gamma-2 expressed in L(tk-) cells; assay type: cell-based
T4 sequence (P18507 whole entry): T3 sequence (P18507 whole entry)
T4 sequence (P28472 whole entry): T3 sequence (P28472 whole entry)
T4 sequence (P34903 whole entry): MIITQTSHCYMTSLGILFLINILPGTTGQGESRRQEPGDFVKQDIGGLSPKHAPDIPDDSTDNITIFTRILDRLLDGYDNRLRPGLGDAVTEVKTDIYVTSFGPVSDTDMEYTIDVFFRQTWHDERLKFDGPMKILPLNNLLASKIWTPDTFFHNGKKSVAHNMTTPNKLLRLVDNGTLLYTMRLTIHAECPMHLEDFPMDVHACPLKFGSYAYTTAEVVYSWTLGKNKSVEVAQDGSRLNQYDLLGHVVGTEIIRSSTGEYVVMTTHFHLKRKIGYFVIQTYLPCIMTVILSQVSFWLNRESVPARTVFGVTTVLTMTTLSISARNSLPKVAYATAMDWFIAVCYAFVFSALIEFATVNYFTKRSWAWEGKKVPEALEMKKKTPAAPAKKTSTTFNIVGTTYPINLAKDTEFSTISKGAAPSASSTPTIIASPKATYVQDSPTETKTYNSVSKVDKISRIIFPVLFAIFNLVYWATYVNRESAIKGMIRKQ

O=c1c2c[nH]c3c(c-2nn1-c1ccc(Cl)cc1)CCCC3
Efficacy [1]: 0.38 | Efficacy [2]: 0.45 | Efficacy [3]: 0.21 | Ki [4]: 0.29 nM | Efficacy [5]: 0.14 | Ki [6]: 1.5 nM
